Activity calls are given as the source filed them. The rule behind the calls is not given here.
Key:
[1] = Antidiabetic activity against IDX medium-treated human bone marrow mesenchymal stem cells assessed as induction of adiponectin production during adipogenesis after 6 days by ELISA relative to glibenclamide; format: functional, Mesenchymal stem cell
Mesenchymal stem cell [2] = assay: Antidiabetic activity against IDX medium-treated human bone marrow mesenchymal stem cells assessed as induction of adiponectin production during adipogenesis after 6 days by ELISA; format: functional
[3] = (§1) Antidiabetic activity against IDX medium-treated human bone marrow mesenchymal stem cells assessed as induction of adipogenesis at 10 uM after 6 days by oil red o/hematoxylin staining-based inverted-phase microscopic analysis relative to IDX medium-treated control; format: functional, Mesenchymal stem cell
[4] = Cytotoxicity against human bone marrow mesenchymal stem cells assessed as cell viability up to 100 uM after 48 hrs by WST-1 assay; format: cell-based
Mesenchymal stem cell [5] = assay: Antidiabetic activity against IDX medium-treated human bone marrow mesenchymal stem cells assessed as induction of adiponectin production during adipogenesis at 60 to 100 uM after 6 days by ELISA relative to IDX medium-treated control; format: functional
Mesenchymal stem cell [6] = assay: as §1; format: functional

Structure (SMILES)	%max [1] [%]	Activity (Mesenchymal stem cell [2])	Activity [3] [%]	Activity [4]	Activity (Mesenchymal stem cell [5])	Activity (Mesenchymal stem cell [6])
CSC(=O)c1c(O[C@@H]2O[C@@H](C)[C@H](O)[C@@H](O)[C@H]2O)c(C)c(O[C@@H]2O[C@@H](C)[C@H](O)[C@@H](O)[C@H]2O)c(C)c1C(C)C	38	Dose-dependent effect	75	Non-toxic	–	–
COc1c(C)c(O[C@@H]2O[C@@H](C)[C@H](O)[C@@H](O)[C@H]2O)c(C(=O)SC)c(C(C)C)c1C	47	Dose-dependent effect	65	Non-toxic	–	–
CSC(=O)c1c(O)c(C)c(O)c(C)c1C(C)C	–	–	–	Non-toxic	inactive	–
CSC(=O)c1c(O[C@@H]2O[C@@H](C)[C@H](O)[C@@H](O)[C@H]2O)c(C)c(O)c(C)c1C(C)C	44	Dose-dependent effect	107	Non-toxic	–	–
COc1ccc(Cl)cc1C(=O)NCCc1ccc(S(=O)(=O)NC(=O)NC2CCCCC2)cc1	–	Dose-dependent effect	–	–	–	–
COc1c(C)c(O[C@@H]2O[C@@H](C)[C@H](O)[C@@H](O)[C@H]2O)c(C)c(C(C)C)c1C(=O)SC	–	–	–	–	–	Active

Reference: ChEMBL document CHEMBL3585324, “Suncheonosides A-D, Benzothioate Glycosides from a Marine-Derived Streptomyces sp” (J Nat Prod, 2015)
